In general, pIC50 refers to the negative decadic logarithm of the IC50, by convention in mol/L.

Structures are written as SMILES. pIC50: −log10 of the molar value.

The target in data set [1] is Wee1 protein (Homo sapiens (Human), UniProt P30291). As to the kind of experiment: TR-FRET binding of compound to Wee1 protein and Tracer 178. The following applies: Tracer 178, read-out: IC50, inhibitory activity against Wee1 kinase. (In TR-FRET formats the signal depends on donor and acceptor labels being close together.)
Chain of Wee1 protein (P30291 whole entry): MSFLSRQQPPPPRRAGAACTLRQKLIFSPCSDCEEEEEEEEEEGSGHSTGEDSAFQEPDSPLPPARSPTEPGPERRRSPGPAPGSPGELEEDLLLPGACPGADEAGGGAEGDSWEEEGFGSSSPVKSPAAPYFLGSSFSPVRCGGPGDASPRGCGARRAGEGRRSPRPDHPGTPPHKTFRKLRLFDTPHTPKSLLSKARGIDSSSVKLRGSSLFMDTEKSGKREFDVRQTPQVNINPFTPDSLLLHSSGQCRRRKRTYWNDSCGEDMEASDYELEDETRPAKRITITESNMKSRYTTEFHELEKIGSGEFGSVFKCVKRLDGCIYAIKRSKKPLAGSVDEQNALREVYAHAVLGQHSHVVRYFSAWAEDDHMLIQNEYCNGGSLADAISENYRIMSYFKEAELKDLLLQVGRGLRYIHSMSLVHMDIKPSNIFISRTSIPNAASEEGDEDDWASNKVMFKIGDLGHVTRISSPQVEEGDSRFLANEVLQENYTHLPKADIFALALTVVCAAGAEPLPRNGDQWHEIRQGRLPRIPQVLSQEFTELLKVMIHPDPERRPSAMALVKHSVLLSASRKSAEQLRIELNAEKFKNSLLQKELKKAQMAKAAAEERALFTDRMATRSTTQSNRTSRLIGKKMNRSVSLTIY
In data set [2] the test system is BxPC3 cells. As to the kind of experiment: Cell Titer-Glo anti-proliferation, BxPC3 cells. The class given is cell-based, human. The following applies: 3 days, read-out: Anti-proliferative activity BxPC3 (IC50 class). In short, it runs like this: (§1)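 Each line was exposed to graded compound concentrations for 3 days at 37 °C, 5% CO2, with final DMSO at 0.2%. Viability was measured by Cell Titer-Glo luminescence, with untreated cells as the maximum and medium as the minimum signal. IC50 came from a variable-slope log(inhibitor)-response fit.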

The test system of data set [3] is HT-29 cells. The experiment in a line: Cell Titer-Glo anti-proliferation, HT-29 cells. The class given is cell-based, human. The following applies: 3 days, read-out: Anti-proliferative activity HT-29 (IC50 class). In short, it runs like this: as §1
Background: In ATP-based viability assays light output follows the ATP content of the culture.

The test system of data set [4] is OVCAR-3 cells. The experiment in a line: Cell Titer-Glo anti-proliferation, OVCAR-3 cells. The class given is cell-based. The following applies: 3 days, read-out: Anti-proliferative activity OVCAR-3 (IC50 class). In short, it runs like this: as §1
Data set [5] has as its system HUVEC cells. As to the kind of experiment: Cell Titer-Glo anti-proliferation, normal cells HUVEC. The class given is cell-based. In short, it runs like this:
(§2)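 Cells were exposed to serial compound concentrations (0.2% DMSO final) for 3 days at 37 °C, 5% CO2, then lysed with Cell Titer-Glo and read by luminescence. Inhibition was referenced to untreated-cell and medium-only controls, and IC50 came from a four-parameter variable-slope log(inhibitor)–response fit.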

Data set [6] deals with HK2 cells. As to the kind of experiment: Cell Titer-Glo anti-proliferation, normal cells HK2. The class given is cell-based. The essentials:
as §2

In data set [7] the target is CYP3A4 (Homo sapiens (Human), UniProt P08684). The experiment in a line: Cytochrome P450 inhibition (fluorescence), CYP3A4. The following applies: read-out: IC50 CYP3A4. The class given is in vitro ADME. As to the method: (§3) Enzymatic experiments were performed to quantify the inhibition of CYP450 enzyme activity of each isoform of CYP450 by small molecule inhibitors through fluorescence generated by the oxidation of the substrate by cytochrome P450. […] The Solution B composition used for the experiment was: 40 U/mL G6PDH (Sigma-aldrich, Cat #G6378). The substrate mix was 0.05× Solution A, 0.01× Solution B, 50 mM Potassium Phosphate, 0.01 mM BOMCC/0.01 mM EOMCC/0.001 mM DBOMF. […] The data were analyzed and processed using GraphPad Prism 6 software to obtain IC50 values.
Chain of CYP3A4 (P08684 whole entry, canonical isoform): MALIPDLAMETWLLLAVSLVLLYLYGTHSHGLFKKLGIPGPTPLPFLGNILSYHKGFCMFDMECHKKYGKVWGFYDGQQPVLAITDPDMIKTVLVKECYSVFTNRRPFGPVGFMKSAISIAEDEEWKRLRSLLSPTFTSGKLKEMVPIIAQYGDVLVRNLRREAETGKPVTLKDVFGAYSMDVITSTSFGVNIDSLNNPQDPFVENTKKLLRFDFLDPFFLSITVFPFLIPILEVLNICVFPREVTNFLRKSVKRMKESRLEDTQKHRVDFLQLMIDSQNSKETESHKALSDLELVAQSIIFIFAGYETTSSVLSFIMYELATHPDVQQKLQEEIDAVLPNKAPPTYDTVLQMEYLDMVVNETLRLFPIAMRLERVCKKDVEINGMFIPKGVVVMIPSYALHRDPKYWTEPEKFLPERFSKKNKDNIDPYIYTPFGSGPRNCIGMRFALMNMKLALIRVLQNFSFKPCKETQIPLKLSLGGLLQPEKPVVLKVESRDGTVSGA

Data set [8] deals with CYP1A2 (Homo sapiens (Human), UniProt P05177). As to the kind of experiment: Cytochrome P450 inhibition (fluorescence), CYP1A2. The class given is in vitro ADME. On the procedure:
as §3

Data set [9] has as its target CYP2C9 (Homo sapiens (Human), UniProt P11712). As to the kind of experiment: Cytochrome P450 inhibition (fluorescence), CYP2C9. The class given is in vitro ADME. The following applies: read-out: IC50 CYP2C9. On the procedure: as §3
Data set [10] concerns the target CYP2C19 (Homo sapiens (Human), UniProt P33261). The experiment in a line: Cytochrome P450 inhibition (fluorescence), CYP2C19. The class given is in vitro ADME. The following applies: read-out: IC50 CYP2C19. On the procedure:
as §3

Data set [11] addresses CYP2D6 (Homo sapiens (Human), UniProt P10635). The experiment in a line: Cytochrome P450 inhibition (fluorescence), CYP2D6. The following applies: read-out: IC50 CYP2D6. The class given is in vitro ADME. As to the method: as §3
For data set [12], the target named is CYP2C8 (Homo sapiens (Human), UniProt P10632). As to the kind of experiment: Cytochrome P450 inhibition (fluorescence), CYP2C8. The class given is in vitro ADME. The following applies: read-out: IC50 CYP2C8. On the procedure: as §3
Chain of CYP2C8 (P10632 whole entry): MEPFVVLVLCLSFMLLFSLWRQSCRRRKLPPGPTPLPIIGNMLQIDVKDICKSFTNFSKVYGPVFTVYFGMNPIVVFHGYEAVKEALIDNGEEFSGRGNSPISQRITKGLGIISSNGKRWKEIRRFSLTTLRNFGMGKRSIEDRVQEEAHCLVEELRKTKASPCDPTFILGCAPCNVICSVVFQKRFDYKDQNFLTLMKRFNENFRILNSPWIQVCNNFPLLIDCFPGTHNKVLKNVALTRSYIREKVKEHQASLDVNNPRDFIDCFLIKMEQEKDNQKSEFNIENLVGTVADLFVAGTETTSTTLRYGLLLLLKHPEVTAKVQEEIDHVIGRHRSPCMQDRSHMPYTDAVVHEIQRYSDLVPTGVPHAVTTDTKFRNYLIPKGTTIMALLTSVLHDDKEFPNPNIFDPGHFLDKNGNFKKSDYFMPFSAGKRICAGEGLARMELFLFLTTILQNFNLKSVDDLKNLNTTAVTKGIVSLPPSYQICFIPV
Data set [13] concerns the target CYP 2B6 (Homo sapiens (Human), UniProt P20813). The experiment in a line: Cytochrome P450 inhibition, CYP2B6. The class given is in vitro ADME. On the procedure: as §3

Chain of CYP1A2 (P05177 whole entry): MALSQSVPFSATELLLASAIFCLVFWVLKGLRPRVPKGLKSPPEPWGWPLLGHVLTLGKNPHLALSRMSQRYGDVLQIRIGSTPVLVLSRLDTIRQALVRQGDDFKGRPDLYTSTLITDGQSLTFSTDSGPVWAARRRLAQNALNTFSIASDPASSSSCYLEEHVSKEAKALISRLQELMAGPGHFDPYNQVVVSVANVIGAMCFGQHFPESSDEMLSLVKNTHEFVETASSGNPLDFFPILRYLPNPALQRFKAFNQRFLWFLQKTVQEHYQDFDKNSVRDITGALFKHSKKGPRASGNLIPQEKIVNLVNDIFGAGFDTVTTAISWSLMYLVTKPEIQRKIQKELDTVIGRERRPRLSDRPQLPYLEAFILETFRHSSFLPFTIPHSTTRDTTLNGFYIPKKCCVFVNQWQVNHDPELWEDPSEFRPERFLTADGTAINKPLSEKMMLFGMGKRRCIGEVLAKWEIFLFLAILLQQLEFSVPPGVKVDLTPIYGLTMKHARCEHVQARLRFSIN
Chain of CYP2C19 (P33261 whole entry): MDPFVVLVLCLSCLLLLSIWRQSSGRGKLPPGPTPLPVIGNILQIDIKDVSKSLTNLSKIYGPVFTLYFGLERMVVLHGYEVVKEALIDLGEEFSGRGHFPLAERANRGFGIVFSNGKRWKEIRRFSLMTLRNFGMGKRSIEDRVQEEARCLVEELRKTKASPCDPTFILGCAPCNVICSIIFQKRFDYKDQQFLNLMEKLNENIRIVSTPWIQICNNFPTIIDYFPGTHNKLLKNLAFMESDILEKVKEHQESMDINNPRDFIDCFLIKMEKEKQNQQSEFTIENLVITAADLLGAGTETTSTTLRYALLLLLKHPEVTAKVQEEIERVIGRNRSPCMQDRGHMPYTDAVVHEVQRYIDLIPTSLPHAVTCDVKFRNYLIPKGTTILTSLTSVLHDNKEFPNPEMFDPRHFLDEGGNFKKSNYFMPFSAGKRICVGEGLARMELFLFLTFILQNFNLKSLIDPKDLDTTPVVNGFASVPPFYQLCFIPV
Chain of CYP2C9 (P11712 whole entry): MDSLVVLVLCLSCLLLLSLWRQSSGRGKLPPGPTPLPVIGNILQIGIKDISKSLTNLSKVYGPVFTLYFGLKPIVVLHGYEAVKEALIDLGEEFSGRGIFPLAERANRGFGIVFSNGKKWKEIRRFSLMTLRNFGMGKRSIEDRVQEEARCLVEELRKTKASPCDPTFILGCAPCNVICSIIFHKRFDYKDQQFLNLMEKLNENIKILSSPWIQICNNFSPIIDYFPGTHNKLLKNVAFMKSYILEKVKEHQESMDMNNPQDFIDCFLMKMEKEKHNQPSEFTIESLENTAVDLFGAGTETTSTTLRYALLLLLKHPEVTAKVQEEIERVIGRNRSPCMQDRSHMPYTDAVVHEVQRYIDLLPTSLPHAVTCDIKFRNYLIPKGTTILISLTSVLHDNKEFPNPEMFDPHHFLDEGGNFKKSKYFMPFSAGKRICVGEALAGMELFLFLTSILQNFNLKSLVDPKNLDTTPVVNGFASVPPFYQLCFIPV
Chain of CYP2D6 (P10635 whole entry): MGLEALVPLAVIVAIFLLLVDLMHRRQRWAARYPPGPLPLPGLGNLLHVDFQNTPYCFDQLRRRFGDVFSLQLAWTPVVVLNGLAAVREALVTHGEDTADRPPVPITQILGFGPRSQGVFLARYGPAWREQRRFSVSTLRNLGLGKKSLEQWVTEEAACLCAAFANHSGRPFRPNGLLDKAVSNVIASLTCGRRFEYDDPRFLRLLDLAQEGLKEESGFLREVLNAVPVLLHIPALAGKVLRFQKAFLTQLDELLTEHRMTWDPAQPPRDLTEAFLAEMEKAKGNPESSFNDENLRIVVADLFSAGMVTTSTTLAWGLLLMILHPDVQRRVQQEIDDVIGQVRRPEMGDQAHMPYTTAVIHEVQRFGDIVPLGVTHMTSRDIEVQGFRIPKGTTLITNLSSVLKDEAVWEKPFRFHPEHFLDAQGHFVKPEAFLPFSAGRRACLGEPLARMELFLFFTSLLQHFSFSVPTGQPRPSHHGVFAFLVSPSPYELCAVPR
Chain of CYP 2B6 (P20813 whole entry): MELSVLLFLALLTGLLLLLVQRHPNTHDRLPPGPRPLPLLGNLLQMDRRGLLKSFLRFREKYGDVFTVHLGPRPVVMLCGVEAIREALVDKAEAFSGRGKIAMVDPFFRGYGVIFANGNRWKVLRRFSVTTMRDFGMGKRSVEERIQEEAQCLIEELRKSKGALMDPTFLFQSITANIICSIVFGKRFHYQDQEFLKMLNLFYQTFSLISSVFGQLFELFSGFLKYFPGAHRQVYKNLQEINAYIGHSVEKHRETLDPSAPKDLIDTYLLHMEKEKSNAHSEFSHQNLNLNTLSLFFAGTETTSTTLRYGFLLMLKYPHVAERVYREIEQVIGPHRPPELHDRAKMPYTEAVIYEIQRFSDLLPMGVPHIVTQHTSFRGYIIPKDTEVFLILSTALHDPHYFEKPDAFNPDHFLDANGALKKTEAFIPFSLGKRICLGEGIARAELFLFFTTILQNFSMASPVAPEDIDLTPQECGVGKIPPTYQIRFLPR

Turning to `C=CCn1c(=O)c2cnc(Nc3ccc(N4CCC5(CCN(C)CC5)CC4)cc3)nc2n1-c1ccc2c(n1)[C@H](O)C1(CC2)CC1` [Compound 37b], the pIC50 is 8.00 to 8.30 in data set [1]; 6.00 to 7.00 in data set [2]; 6.00 to 7.00 in [3]; 6.00 to 7.00 in [4]; under 5.00 in data set [5]; 5.82 in data set [6]. Moreover, the pIC50 in data set [7], in data set [8], in [9], in [10], in data set [11] and in data set [12] was under 5.00 each time. The negative-log IC50 (pIC50) in data set [13] was under 5.00.
